Laboratory results published in patent US20140045826A1, “METHODS AND COMPOSITIONS FOR TREATING NEURODEGENERATIVE DISEASES” (ARIAD PHARMACEUTICALS, INC., priority 2011, published 2014).
pIC50: −log10 of the molar value.

Assays:
[1] = mice and humans; cited from earlier work
ALK = ALK (Homo sapiens, UniProt Q9UM73); test: in vitro kinase assay; assay type: biochemical
Aurora C = molecular target: T1, Aurora C (Homo sapiens, UniProt Q9UQB9); test: in vitro kinase assay; assay type: biochemical
T1 sequence (Q9UQB9 1-309): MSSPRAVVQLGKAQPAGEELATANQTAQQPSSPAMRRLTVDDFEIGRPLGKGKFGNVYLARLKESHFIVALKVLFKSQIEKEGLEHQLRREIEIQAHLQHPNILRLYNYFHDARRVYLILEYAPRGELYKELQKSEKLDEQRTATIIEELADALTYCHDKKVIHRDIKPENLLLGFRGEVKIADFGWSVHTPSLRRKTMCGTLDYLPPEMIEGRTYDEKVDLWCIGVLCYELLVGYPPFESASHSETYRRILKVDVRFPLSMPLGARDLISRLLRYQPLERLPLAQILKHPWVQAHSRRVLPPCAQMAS

AXL = molecular target: T2, AXL (Homo sapiens, UniProt P30530); test: in vitro kinase assay; assay type: biochemical
T2 sequence (P30530 26-894): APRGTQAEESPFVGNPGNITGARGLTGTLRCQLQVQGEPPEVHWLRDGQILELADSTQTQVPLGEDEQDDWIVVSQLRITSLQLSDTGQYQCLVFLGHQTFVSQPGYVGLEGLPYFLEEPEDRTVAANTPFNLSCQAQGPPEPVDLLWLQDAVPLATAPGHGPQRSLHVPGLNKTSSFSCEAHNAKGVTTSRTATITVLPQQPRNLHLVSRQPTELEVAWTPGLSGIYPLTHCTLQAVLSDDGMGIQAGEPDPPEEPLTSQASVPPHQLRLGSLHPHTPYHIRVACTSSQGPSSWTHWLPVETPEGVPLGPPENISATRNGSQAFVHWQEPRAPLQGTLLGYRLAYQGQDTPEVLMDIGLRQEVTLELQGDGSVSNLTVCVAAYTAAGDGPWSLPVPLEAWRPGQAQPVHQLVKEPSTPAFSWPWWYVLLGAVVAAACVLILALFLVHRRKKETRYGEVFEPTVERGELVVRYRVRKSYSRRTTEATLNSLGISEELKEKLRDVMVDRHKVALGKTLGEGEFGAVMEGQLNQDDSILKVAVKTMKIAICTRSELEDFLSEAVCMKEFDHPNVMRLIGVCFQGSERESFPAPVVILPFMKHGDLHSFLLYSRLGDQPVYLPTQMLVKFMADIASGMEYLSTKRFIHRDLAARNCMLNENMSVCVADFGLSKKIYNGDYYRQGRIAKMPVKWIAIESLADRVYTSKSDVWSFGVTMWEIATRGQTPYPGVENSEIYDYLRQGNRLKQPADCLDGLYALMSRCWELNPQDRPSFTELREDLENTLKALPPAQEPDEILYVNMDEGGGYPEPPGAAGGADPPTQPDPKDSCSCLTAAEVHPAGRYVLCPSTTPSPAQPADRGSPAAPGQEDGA

CTK = molecular target: T3, CTK (Homo sapiens, UniProt P42679); test: in vitro kinase assay; assay type: biochemical
T3 sequence (P42679 1-507): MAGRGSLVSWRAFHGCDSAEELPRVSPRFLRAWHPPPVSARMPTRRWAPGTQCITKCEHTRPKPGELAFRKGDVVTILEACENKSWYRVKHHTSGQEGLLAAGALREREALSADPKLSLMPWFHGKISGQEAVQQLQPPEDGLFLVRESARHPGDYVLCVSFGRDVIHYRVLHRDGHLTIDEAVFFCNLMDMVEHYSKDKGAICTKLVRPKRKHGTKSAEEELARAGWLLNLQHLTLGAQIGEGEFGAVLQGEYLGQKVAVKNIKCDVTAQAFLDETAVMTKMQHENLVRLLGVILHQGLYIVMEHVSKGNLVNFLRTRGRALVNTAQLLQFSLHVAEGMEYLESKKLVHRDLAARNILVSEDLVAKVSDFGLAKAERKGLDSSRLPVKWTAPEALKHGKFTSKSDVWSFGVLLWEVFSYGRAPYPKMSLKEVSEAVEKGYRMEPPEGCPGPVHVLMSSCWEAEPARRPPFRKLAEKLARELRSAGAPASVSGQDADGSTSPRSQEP

IRR = IRR (Homo sapiens, UniProt P14616); test: in vitro kinase assay; assay type: biochemical
ITK = molecular target: T4, ITK (Homo sapiens, UniProt Q08881); test: in vitro kinase assay; assay type: biochemical
T4 sequence (Q08881 1-620): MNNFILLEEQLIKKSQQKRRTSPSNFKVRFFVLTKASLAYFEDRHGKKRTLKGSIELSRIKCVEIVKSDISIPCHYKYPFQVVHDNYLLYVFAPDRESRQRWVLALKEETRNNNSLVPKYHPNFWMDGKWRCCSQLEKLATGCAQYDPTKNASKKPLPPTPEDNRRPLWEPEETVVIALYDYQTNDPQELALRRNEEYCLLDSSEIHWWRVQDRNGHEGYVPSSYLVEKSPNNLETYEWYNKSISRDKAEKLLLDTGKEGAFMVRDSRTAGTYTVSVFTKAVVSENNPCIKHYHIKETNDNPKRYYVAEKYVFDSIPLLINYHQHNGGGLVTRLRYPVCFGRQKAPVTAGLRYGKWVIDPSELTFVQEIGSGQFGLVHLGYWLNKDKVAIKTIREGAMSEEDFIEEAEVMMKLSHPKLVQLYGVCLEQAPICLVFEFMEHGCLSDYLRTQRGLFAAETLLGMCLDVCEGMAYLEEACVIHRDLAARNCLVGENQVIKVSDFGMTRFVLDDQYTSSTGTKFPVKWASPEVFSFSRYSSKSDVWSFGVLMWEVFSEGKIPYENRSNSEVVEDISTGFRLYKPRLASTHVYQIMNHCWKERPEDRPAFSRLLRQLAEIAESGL

mTOR = mTOR (Homo sapiens, UniProt P42345); test: in vitro kinase assay; assay type: biochemical
PKC8 = test: in vitro kinase assay; assay type: biochemical
ROS = ROS (Homo sapiens, UniProt P08922); test: in vitro kinase assay; assay type: biochemical
TYK1 = TYK1 (Homo sapiens, UniProt P29376); test: in vitro kinase assay; assay type: biochemical
ZAP70 = molecular target: T5, ZAP70 (Homo sapiens, UniProt P43403); test: in vitro kinase assay; assay type: biochemical
T5 sequence (P43403 1-619): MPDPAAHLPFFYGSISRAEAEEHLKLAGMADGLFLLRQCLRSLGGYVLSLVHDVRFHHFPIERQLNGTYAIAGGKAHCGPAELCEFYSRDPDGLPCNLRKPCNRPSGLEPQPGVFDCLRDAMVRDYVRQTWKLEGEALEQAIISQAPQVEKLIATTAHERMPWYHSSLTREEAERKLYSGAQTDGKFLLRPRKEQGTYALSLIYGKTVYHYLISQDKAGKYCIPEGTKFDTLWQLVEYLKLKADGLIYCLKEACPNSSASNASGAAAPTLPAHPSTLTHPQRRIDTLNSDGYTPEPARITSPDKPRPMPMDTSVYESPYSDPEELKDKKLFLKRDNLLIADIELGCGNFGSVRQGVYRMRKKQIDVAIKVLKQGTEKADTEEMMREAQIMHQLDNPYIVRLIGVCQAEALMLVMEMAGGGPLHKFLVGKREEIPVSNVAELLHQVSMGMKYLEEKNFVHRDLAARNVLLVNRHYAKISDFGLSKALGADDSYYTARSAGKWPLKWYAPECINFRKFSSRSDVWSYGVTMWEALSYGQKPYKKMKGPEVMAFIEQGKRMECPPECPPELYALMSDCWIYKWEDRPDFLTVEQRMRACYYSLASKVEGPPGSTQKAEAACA

in vivo = details: rat, plasma, po, 5 mg/kg
PGP efflux pump = PGP efflux pump (Homo sapiens, UniProt P08183); test: substrate for the PGP efflux pump
[2] = phase 1 clinical trial, safety and tolerability

Sequence of IRR (P14616 27-1297): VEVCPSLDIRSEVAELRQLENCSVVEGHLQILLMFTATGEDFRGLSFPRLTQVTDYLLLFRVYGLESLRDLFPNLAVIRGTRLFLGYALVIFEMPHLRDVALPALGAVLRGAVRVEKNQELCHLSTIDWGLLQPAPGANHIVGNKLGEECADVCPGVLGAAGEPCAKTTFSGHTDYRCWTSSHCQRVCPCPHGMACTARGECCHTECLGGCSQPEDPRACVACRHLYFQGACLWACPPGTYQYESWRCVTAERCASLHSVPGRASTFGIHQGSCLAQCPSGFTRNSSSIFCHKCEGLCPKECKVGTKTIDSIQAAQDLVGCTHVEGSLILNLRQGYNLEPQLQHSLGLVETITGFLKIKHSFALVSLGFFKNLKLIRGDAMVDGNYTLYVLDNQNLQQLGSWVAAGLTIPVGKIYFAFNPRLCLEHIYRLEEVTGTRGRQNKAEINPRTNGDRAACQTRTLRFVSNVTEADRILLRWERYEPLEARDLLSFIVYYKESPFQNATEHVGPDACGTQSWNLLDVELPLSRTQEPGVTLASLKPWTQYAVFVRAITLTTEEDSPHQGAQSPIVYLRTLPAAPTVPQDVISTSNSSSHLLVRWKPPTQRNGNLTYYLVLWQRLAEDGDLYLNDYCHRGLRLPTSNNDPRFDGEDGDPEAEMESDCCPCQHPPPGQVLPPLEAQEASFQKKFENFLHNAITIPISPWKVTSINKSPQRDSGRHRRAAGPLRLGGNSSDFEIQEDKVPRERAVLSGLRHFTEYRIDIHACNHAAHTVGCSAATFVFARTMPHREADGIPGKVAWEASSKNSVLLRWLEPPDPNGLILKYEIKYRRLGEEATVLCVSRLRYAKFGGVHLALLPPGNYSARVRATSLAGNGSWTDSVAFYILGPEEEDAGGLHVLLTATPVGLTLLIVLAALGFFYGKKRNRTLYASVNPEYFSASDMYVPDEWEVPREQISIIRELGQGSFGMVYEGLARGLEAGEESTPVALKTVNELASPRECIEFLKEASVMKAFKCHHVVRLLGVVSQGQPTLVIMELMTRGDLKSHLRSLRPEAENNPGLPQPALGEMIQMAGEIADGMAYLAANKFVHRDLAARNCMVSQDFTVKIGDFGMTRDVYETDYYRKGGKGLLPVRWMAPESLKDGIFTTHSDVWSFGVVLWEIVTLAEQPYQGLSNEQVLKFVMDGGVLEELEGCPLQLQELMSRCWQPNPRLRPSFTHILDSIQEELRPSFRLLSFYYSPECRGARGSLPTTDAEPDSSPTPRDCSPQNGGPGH
Sequence of PGP efflux pump (P08183 whole entry): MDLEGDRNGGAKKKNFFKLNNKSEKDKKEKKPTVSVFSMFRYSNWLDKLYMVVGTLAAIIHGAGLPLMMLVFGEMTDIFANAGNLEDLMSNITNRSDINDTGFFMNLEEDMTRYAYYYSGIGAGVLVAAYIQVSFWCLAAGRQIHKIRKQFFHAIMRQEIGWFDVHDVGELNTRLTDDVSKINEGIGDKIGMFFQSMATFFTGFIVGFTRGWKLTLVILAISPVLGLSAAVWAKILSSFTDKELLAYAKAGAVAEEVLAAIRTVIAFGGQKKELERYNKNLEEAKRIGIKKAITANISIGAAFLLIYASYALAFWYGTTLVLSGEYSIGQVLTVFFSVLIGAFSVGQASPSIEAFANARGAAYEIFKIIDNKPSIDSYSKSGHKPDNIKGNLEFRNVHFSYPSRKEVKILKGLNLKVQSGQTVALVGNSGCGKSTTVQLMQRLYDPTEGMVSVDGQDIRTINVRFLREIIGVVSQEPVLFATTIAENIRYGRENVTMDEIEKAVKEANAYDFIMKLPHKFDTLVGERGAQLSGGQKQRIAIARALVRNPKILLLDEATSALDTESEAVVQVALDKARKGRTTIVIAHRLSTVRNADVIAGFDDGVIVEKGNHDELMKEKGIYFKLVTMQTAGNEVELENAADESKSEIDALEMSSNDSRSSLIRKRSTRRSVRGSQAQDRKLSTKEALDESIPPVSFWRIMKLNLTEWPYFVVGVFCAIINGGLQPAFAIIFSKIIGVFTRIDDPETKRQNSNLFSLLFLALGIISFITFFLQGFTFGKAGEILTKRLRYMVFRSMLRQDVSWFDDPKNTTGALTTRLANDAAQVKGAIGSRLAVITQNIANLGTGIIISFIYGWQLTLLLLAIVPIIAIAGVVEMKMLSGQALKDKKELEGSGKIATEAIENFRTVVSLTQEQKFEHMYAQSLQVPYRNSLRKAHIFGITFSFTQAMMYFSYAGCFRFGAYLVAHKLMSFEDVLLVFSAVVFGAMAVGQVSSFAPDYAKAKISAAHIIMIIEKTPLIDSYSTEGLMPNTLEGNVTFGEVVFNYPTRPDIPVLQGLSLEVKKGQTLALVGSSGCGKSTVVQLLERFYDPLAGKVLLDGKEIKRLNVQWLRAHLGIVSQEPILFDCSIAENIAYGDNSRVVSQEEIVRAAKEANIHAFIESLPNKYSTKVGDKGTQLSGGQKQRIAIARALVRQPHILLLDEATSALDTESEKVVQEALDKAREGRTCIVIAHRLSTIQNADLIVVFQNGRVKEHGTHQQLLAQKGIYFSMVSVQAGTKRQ
Sequence of ROS (P08922 28-2347): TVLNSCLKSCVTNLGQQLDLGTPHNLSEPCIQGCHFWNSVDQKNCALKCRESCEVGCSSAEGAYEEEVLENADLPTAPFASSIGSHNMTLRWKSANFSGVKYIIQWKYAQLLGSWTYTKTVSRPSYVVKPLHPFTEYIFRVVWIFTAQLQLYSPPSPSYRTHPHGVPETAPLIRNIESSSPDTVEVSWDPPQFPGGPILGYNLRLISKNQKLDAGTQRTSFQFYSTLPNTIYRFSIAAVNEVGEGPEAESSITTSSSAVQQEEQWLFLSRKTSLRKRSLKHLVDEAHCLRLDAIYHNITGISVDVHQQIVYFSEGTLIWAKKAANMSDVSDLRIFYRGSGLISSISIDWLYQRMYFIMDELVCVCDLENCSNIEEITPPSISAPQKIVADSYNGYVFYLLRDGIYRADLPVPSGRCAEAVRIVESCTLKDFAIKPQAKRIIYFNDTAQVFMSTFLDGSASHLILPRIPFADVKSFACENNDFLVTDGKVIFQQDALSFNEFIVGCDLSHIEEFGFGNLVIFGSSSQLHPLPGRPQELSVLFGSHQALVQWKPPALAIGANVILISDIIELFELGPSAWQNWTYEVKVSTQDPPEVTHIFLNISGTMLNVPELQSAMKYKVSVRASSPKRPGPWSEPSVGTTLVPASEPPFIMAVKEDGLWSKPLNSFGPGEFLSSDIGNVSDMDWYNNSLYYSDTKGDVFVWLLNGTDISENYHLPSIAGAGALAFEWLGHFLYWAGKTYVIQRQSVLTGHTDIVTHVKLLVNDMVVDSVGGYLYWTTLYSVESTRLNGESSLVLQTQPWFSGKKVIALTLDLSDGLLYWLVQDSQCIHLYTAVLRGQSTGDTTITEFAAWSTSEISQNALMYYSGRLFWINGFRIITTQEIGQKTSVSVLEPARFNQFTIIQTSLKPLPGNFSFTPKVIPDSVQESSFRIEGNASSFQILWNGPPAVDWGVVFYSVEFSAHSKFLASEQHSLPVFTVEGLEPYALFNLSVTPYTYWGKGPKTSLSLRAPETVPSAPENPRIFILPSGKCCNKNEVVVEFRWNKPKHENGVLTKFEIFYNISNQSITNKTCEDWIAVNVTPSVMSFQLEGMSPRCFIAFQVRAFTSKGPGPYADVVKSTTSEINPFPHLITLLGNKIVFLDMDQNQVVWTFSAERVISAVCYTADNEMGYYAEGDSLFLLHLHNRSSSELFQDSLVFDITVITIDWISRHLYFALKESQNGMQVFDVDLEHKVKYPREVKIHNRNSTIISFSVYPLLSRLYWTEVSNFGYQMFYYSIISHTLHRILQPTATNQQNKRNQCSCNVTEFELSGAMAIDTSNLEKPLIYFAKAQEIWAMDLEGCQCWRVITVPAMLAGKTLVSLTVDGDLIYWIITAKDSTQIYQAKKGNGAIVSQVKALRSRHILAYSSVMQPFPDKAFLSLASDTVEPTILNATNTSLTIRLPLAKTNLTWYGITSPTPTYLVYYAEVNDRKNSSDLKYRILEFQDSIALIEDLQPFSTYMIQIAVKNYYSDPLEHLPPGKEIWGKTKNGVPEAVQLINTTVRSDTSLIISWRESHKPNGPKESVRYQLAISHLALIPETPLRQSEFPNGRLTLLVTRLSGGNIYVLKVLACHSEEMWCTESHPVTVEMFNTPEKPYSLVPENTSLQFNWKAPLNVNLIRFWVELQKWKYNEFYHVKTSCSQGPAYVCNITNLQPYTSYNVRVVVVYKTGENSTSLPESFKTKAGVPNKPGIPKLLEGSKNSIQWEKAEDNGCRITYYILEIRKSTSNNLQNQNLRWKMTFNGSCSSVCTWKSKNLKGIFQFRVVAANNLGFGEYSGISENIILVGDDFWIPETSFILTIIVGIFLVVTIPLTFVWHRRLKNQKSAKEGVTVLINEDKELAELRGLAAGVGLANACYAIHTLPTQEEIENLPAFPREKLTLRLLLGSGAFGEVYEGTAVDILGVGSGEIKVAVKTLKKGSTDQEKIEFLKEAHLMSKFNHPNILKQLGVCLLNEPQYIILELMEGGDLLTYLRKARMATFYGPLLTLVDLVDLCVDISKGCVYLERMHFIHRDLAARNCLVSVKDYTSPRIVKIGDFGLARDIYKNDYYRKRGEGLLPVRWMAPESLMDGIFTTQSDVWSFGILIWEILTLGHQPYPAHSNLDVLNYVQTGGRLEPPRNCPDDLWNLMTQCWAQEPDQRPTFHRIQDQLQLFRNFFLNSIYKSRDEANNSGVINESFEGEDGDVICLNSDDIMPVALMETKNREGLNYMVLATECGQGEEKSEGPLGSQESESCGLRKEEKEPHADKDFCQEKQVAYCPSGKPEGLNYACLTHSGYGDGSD

Cc1ccc(NC(=O)c2ccc(CN3CCN(C)CC3)cc2)cc1Nc1nccc(-c2cccnc2)n1 [STI-571]
penetration of the blood-brain barrier [1]: poor penetration of the blood-brain barrier

Cc1ccc(C(=O)Nc2ccc(CN3CCN(C)CC3)c(C(F)(F)F)c2)cc1C#Cc1cnc2cccnn12 [ponatinib, 3-(Imidazo[1,2-b]pyridazin-3-ylethynyl)-4-methyl-N-(4-((4-methylpiperazin-1-yl)methyl)-3-(trifluoromethyl)phenyl)benzamide]
pIC50 (ALK): < 6.00
pIC50 (Aurora C): < 6.00
pIC50 (AXL): < 6.00
pIC50 (CTK): < 6.00
pIC50 (IRR): < 6.00
pIC50 (ITK): < 6.00
pIC50 (mTOR): < 6.00
pIC50 (PKC8): < 6.00
pIC50 (ROS): < 6.00
pIC50 (TYK1): < 6.00
pIC50 (ZAP70): < 6.00
Cmax (in vivo): 175 ng/mL
substrate for the PGP efflux pump (PGP efflux pump): poor substrate
dose limiting toxicities (DLTs) ([2]; 45 mg cohort): a reversible rash was seen with one patient
dose limiting toxicities (DLTs) ([2]; 60 mg cohort): four patients developed reversible pancreatic related DLT (pancreatitis)
dose limiting toxicities (DLTs) ([2]; 2 to 30 mg cohorts): no dose limiting toxicities (DLTs) were observed
maximum tolerated dose (MTD) ([2]; patients with refractory hematological cancers, oral, dose escalation 2-60 mg): 45 mg
drug-related adverse events of any grade: anemia ([2]; phase 1 patients): 12%
drug-related adverse events of any grade: lipase increase ([2]; phase 1 patients): 12%
drug-related adverse events of any grade: nausea ([2]; phase 1 patients): 12%
drug-related adverse events of any grade: rash ([2]; phase 1 patients): 12%
drug-related adverse events of any grade: thrombocytopenia ([2]; phase 1 patients): 25%
tolerability ([2]; phase 1 study conclusion): well tolerated
